Measurements reported in ChEMBL document CHEMBL3596161, “Progress Toward the Development of Noscapine and Derivatives as Anticancer Agents” (J Med Chem, 2015).

What was measured:
CCRF-CEM [1] = assay: Cytotoxicity against human CEM cells; type: functional, cell-based
HeLa [2] = assay: Cytotoxicity against human HeLa cells; type: functional, cell-based
MCF7 = assay: Cytotoxicity against human MCF7 cells; type: functional, cell-based
A549 = assay: Cytotoxicity against human A549 cells; type: functional, cell-based
Tubulin (Homo sapiens) [3] = target: T1, Tubulin (Homo sapiens) (UniProt P68371+Q9H4B7+P0DPH7+P68366+Q13509+Q71U36+P04350+Q3ZCM7+P07437+P68363+Q9BQE3+Q6PEY2+Q13885+Q9BVA1+Q9BUF5); assay: Inhibition of MAPs-rich tubulin (unknown origin) polymerization at 50 uM; type: protein-complex assay
[4] = Cytotoxicity against human MCF-7 FLV1000 cells expressing […]; type: functional, cell-based
[5] = Antitumor activity against human H460 cells xenografted in athymic nu/nu mouse assessed as tumor regression at 10 mg/kg/day, po administered for 24 days; type: functional, NCI-H460
U-251 [6] = assay: Cell cycle arrest in human U251 cells assessed as accumulation at G1 phase at 30 uM after 24 hrs by flow cytomtery analysis (reference value: 59.62%); type: functional
[7] = Antitumor activity against human H460 cells xenografted in athymic nu/nu mouse assessed as tumor regression at 450 mg/kg/day, po administered for 24 days; type: functional, NCI-H460
U-251 [8] = assay: Cell cycle arrest in human TMZ-resistant U251 cells assessed as accumulation at G2/M phase at 30 uM after 24 hrs by flow cytomtery analysis (reference value: 19.42%); type: functional
Tubulin (Homo sapiens) [9] = target: T1, Tubulin (Homo sapiens); assay: Inhibition of tubulin polymerization in human HeLa cells assessed as polymeric tubulin level at 10 uM; type: cell-based; set-up: scale not given: the % may be the effect or the level left
HeLa [10] = assay: Induction of apoptosis in human HeLa cells after 24 hrs; type: functional
[11] = Antitumor activity against human H460 cells xenografted in athymic nu/nu mouse assessed as tumor regression at 550 mg/kg/day, po administered for 24 days; type: functional, NCI-H460
Tubulin (Homo sapiens) [12] = target: T1, Tubulin (Homo sapiens); assay: Inhibition of tubulin polymerization in human HeLa cells assessed as polymeric tubulin level at 1 uM; type: cell-based; set-up: scale not given: the % may be the effect or the level left
Tubulin (Homo sapiens) [13] = target: T1, Tubulin (Homo sapiens); assay: Inhibition of tubulin polymerization in human HeLa cells assessed as shortening of microtubules at 20 uM; type: cell-based; set-up: scale not given: the % may be the effect or the level left
U-251 [14] = assay: Antiproliferative activity against human U251 cells assessed as decrease in colony formation; type: functional, cell-based
HeLa [15] = assay: Cell cycle arrest in human HeLa cells assessed as accumulation at G1 phase after 24 hrs by FACS analysis (reference value: 45.2%); type: functional
HeLa [16] = assay: Cell cycle arrest in human HeLa cells assessed as accumulation at G2/M phase after 24 hrs by FACS analysis (reference value: 16.5%); type: functional
[17] = Antitumor activity against human H460 cells xenografted in athymic nu/nu mouse assessed as tumor regression at 300 mg/kg/day, po administered for 24 days; type: functional, NCI-H460
[18] = Cytotoxicity against human H460 cells after 72 hrs; type: functional, cell-based; settings: NCI-H460, 72 h
[19] = Antiproliferative activity against human LN229 cells assessed as decrease in colony formation; type: functional, cell-based; settings: LN-229
U-251 [20] = assay: Cell cycle arrest in human U251 cells assessed as accumulation at S phase at 30 uM after 24 hrs by flow cytomtery analysis (reference value: 18.08%); type: functional
HeLa [21] = assay: Cell cycle arrest in human HeLa cells assessed as accumulation at G2/M phase by measuring 4N DNA content at 6.4 uM by flow cytometry; type: functional
HeLa [22] = assay: Growth inhibition in human HeLa cells assessed as reduction of growth at 50 uM; type: functional; settings: read-out: GI
Tubulin (Homo sapiens) [23] = target: T1, Tubulin (Homo sapiens); assay: Inhibition of tubulin polymerization in human HeLa cells assessed as polymeric tubulin level at 100 uM; type: cell-based; set-up: scale not given: the % may be the effect or the level left
U-251 [24] = assay: Cell cycle arrest in human TMZ-resistant U251 cells assessed as accumulation at G1 phase at 30 uM after 24 hrs by flow cytomtery analysis (reference value: 47.53%); type: functional
U-251 [25] = assay: Cell cycle arrest in human U251 cells assessed as accumulation at G2/M phase at 30 uM after 24 hrs by flow cytomtery analysis (reference value: 22.31%); type: functional
HeLa [26] = assay: Antimitotic activity against human HeLa cells; type: functional, cell-based
U-251 [27] = assay: Cell cycle arrest in human TMZ-resistant U251 cells assessed as accumulation at S phase at 30 uM after 24 hrs by flow cytomtery analysis (reference value: 33.05%); type: functional
Tubulin (Homo sapiens) [28] = target: T1, Tubulin (Homo sapiens); assay: Inhibition of tubulin polymerization in human HeLa cells assessed as shortening of microtubules at 50 uM; type: cell-based; set-up: scale not given: the % may be the effect or the level left
[29] = Antiproliferative activity against human A172 cells assessed as decrease in colony formation; type: functional, cell-based; settings: A 172
C6 = assay: Antitumor activity against rat C6 cells xenografted in mouse assessed as reduction of tumor volume relative to control; type: functional
Tubulin (Homo sapiens) [30] = target: T1, Tubulin (Homo sapiens); assay: Inhibition of tubulin polymerization in human HeLa cells assessed as microtubules spent time in attenuated state at 50 uM; type: cell-based; set-up: scale not given: the % may be the effect or the level left
HeLa [31] = assay: Cell cycle arrest in human HeLa cells assessed as accumulation at S phase after 24 hrs by FACS analysis (reference value: 12.9%); type: functional
[32] = Cytotoxicity against human Non-small cell lung cancer cell; type: functional, cell-based; settings: Cancer cell lines
Tubulin (Homo sapiens) [33] = target: T1, Tubulin (Homo sapiens); assay: Inhibition of colchicine binding to tubulin (unknown origin) at 50 uM; type: protein-complex assay
[34] = Induction of apoptosis in human CCRF-CEM/VLB100 cells assessed as reduction of mitochondrial potential after 72 hrs; type: functional; set-up: scale not given: the % may be the effect or the level left
CCRF-CEM [35] = assay: Antitumor activity against human CEM cells xenografted in mouse assessed as reduction of tumor at 10 mg/kg/day, iv administered for 26 days; type: functional; settings: 624 h, read-out: GI
Tubulin (Homo sapiens) [36] = target: T1, Tubulin (Homo sapiens); assay: Inhibition of colchicine binding to tubulin (unknown origin) at 25 uM; type: protein-complex assay
CCRF-CEM [37] = assay: Antitumor activity against human CEM cells xenografted in mouse assessed as reduction of tumor at 300 mg/kg/day, po administered for 26 days; type: functional; settings: 624 h, read-out: GI
[38] = Antitumor activity against human CCRF-CEM/VLB100 cells xenografted in mouse assessed as reduction of tumor at 300 mg/kg/day, po administered for 32 days; type: functional; settings: 768 h, read-out: GI
[39] = Cell cycle arrest in human CCRF-CEM/VLB100 cells assessed as accumulation at sub-G1 phase by measuring 2N DNA content after 72 hrs; type: functional, cell-based
Tubulin = assay: Binding affinity to tubulin (unknown origin); type: protein-complex assay, Homo sapiens
[40] = Cell cycle arrest in human CCRF-CEM/VLB100 cells assessed as accumulation at G2/M phase; type: functional, cell-based
Tubulin (Homo sapiens) [41] = target: T1, Tubulin (Homo sapiens); assay: Inhibition of colchicine binding to tubulin (unknown origin) at 100 uM; type: protein-complex assay
[42] = Induction of apoptosis in human CCRF-CEM/VLB100 cells assessed as reduction of mitochondrial potential after 24 hrs; type: functional; set-up: scale not given: the % may be the effect or the level left
CCRF-CEM [43] = assay: Cell cycle arrest in human CEM cells assessed as accumulation at G2/M phase; type: functional
CCRF-CEM [44] = assay: Cell cycle arrest in human CEM cells assessed as accumulation at sub-G1 phase by measuring 2N DNA content after 72 hrs; type: functional

## COc1cccc(CN2CCc3cc4c(c(OC)c3[C@@H]2[C@H]2OC(=O)c3c2ccc(OC)c3OC)OCO4)c1
CCRF-CEM [1]
  IC50: 6.7 µM
HeLa [2]
  IC50: 15.3 µM
MCF7
  IC50: 24.5 µM
A549
  IC50: 26.9 µM

## CCOC(=O)CN1CCc2cc3c(c(OC)c2[C@@H]1[C@H]1OC(=O)c2c1ccc(OC)c2OC)OCO3
CCRF-CEM [1]
  IC50: 13.6 µM
HeLa [2]
  IC50: 32.4 µM
MCF7
  IC50: 52.6 µM
A549
  IC50: 72.3 µM

## COc1ccc2c(c1OCCCCS(=O)(=O)O)C(=O)O[C@@H]2[C@H]1c2c(cc3c(c2OC)OCO3)CCN1C
Tubulin (Homo sapiens) [3]
  inhibition: 74%

## COc1ccc2c(c1OC)C(=O)O[C@@H]2[C@H]1c2c(cc3c(c2OC)OCO3)CCN1CC(C)=O
CCRF-CEM [1]
  IC50: 6.9 µM
HeLa [2]
  IC50: 15.8 µM
MCF7
  IC50: 25.3 µM
A549
  IC50: 28 µM

## O=C1c2c(O)ccc(O)c2C(=O)c2c(NCCNCCO)ccc(NCCNCCO)c21 [MITOXANTRONE]
[4]
  IC50: 435 nM
MCF7
  IC50: 0.026 µM

## CC(=O)O[C@@]12CO[C@@H]1C[C@H](O)[C@@]1(C)C(=O)[C@H](O)C3=C(C)[C@@H](OC(=O)[C@H](O)[C@@H](NC(=O)OC(C)(C)C)c4ccccc4)C[C@@](O)([C@@H](OC(=O)c4ccccc4)[C@H]21)C3(C)C [DOCETAXEL ANHYDROUS]
[5]
  Activity: 93%

## COc1ccc2c(c1OC)C(=O)O[C@@H]2[C@H]1c2c(cc3c(c2OC)OCO3)CCN1Cc1cccc(Br)c1
CCRF-CEM [1]
  IC50: 7.5 µM
HeLa [2]
  IC50: 17.3 µM
MCF7
  IC50: 27.8 µM
A549
  IC50: 32.1 µM

## COc1ccc2c(c1OC)C(=O)O[C@@H]2[C@H]1c2c(cc3c(c2OC)OCO3)CCN1C [NOSCAPINE]
U-251 [6]
  Activity: 28.92%
CCRF-CEM [1]
  IC50: 14.5 µM
[7]
  Activity: 65%
U-251 [8]
  Activity: 23.13%
Tubulin (Homo sapiens) [9]
  Activity: 59.2%
HeLa [10]
  Activity: 50%
[11]
  Activity: 86%
Tubulin (Homo sapiens) [12]
  Activity: 58.3%
Tubulin (Homo sapiens) [13]
  Activity: 21.6%
U-251 [14]
  IC50: 40 µM
HeLa [15]
  Activity: 6.4%
HeLa [16]
  Activity: 42.9%
[17]
  Activity: 49%
[18]
  IC50: 34.7 µM
[19]
  IC50: 70 µM
U-251 [20]
  Activity: 23.33%
HeLa [21]
  Activity: 15.2%
HeLa [22]
  inhibition of growth at 50 µM: 42.4%
Tubulin (Homo sapiens) [23]
  Activity: 59.2%
U-251 [24]
  Activity: 21.54%
U-251 [25]
  Activity: 47.75%
HeLa [26]
  EC50: 18.4 µM
A549
  IC50: 72.9 µM
U-251 [27]
  Activity: 25.33%
Tubulin (Homo sapiens) [28]
  Activity: 24.3%
[29]
  IC50: 20 µM
C6
  growth inhibition (GI): 60%
Tubulin (Homo sapiens) [30]
  Activity: 12.7%
HeLa [31]
  Activity: 11.1%

## COc1ccc2c(c1OC)C(=O)O[C@@H]2[C@H]1c2c(cc3c(c2OC)OCO3)CCN1Cc1ccccc1
CCRF-CEM [1]
  IC50: 8.3 µM
HeLa [2]
  IC50: 19.4 µM
MCF7
  IC50: 31.2 µM
A549
  IC50: 37.7 µM

## COC(=O)CN1CCc2cc3c(c(OC)c2[C@@H]1[C@H]1OC(=O)c2c1ccc(OC)c2OC)OCO3
CCRF-CEM [1]
  IC50: 9.5 µM
HeLa [2]
  IC50: 22.3 µM
MCF7
  IC50: 36 µM
A549
  IC50: 45.4 µM

## COc1ccc2c(c1OC)C(=O)O[C@@H]2[C@H]1c2c(c(Br)c3c(c2OC)OCO3)CCN1C
[32]
  IC50: 4 µM
Tubulin (Homo sapiens) [33]
  inhibition: 40%
[34]
  Activity: 99%
CCRF-CEM [35]
  inhibition in vivo at 10 mg/kg/day: 80%
Tubulin (Homo sapiens) [36]
  inhibition: 23%
CCRF-CEM [37]
  inhibition in vivo at 300 mg/kg/day: 80%
[38]
  inhibition in vivo at 300 mg/kg/day: 81%
[39]
  Activity: 75%
HeLa [21]
  Activity: 51.8%
Tubulin
  Kd: 54 µM
[40]
  Activity: 47%
Tubulin (Homo sapiens) [41]
  inhibition: 66%
HeLa [26]
  EC50: 7.7 µM
[42]
  Activity: 49%
CCRF-CEM [43]
  Activity: 45%
CCRF-CEM [44]
  Activity: 57%
